Laboratory results from ChEMBL document CHEMBL5584316, “Arcopilins: A New Family of Staphylococcus aureus Biofilm Disruptors from the Soil Fungus Arcopilus navicularis” (J Med Chem, 2024).
The source made the active and inactive calls. The rule behind the calls is not given here.

Columns and labels:
KB 3-1 = experiment: Cytotoxicity against human KB-3-1 cells assessed as inhibition of cell growth incubated for 5 days by MTT assay; format: toxicity, cell-based; details: kb 3-1, 120 h, time 5 day
[1] = system: Chromobacterium violaceum; experiment: Antimicrobial activity against Chromobacterium violaceum DSM 30191 assessed as inhibition of microbial growth incubated overnight by serial dilution method; format: functional, organism-based
[2] = system: Schizosaccharomyces pombe; experiment: Antimicrobial activity against Schizosaccharomyces pombe DSM 70572 assessed as inhibition of microbial growth incubated overnight by serial dilution method; format: functional
L929 = experiment: Cytotoxicity against mouse L929 cells assessed as inhibition of cell growth incubated for 5 days by MTT assay; format: toxicity, cell-based; details: l929, 120 h, time 5 day
Wickerhamomyces anomalus = experiment: Antimicrobial activity against Wickerhamomyces anomalus DSM 6766 assessed as inhibition of microbial growth incubated overnight by serial dilution method; format: functional, organism-based
[3] = system: Mycolicibacterium smegmatis; experiment: Antimicrobial activity against Mycobacterium smegmatis ATCC 700084 assessed as inhibition of microbial growth incubated overnight by serial dilution method; format: functional
Candida albicans = experiment: Antimicrobial activity against Candida albicans DSM 1665 assessed as inhibition of microbial growth incubated overnight by serial dilution method; format: functional
Mucor hiemalis = experiment: Antimicrobial activity against Mucor hiemalis DSM 2656 assessed as inhibition of microbial growth incubated overnight by serial dilution method; format: functional
Rhodotorula glutinis = experiment: Antimicrobial activity against Rhodotorula glutinis DSM 10134 assessed as inhibition of microbial growth incubated overnight by serial dilution method; format: functional, organism-based
Escherichia coli = experiment: Antimicrobial activity against Escherichia coli DSM 1116 assessed as inhibition of microbial growth incubated overnight by serial dilution method; format: functional, organism-based
Pseudomonas aeruginosa = experiment: Antimicrobial activity against Pseudomonas aeruginosa PA14 assessed as inhibition of microbial growth incubated overnight by serial dilution method; format: functional, organism-based
Staphylococcus aureus [4] = experiment: Antimicrobial activity against Staphylococcus aureus DSM 346 assessed as inhibition of microbial growth incubated overnight by serial dilution method; format: functional
Bacillus subtilis = experiment: Antimicrobial activity against Bacillus subtilis DSM 10 assessed as inhibition of microbial growth incubated overnight by serial dilution method; format: functional
Staphylococcus aureus [5] = experiment: Antimicrobial activity against Staphylococcus aureus DSM 1104 assessed as inhibition of microbial growth incubated overnight by serial dilution method; format: functional; details: DSM1104
Staphylococcus aureus [6] = experiment: Antibiofilm activity in Staphylococcus aureus DSM1104 assessed as disruption of preformed biofilm; format: functional, organism-based
Staphylococcus aureus [7] = experiment: Antibiofilm activity in Staphylococcus aureus DSM1104 assessed as disruption of preformed biofilm at 3.9 to 250 ug/ml incubated for 18 hrs by crystal violet staining based assay; format: functional, organism-based; details: dose 3.9-250 µg/ml
Staphylococcus aureus [8] = experiment: Antibiofilm activity in Staphylococcus aureus DSM1104 assessed as disruption of preformed biofilm at 3.9 ug/ml incubated for 18 hrs by crystal violet staining based assay relative to control; format: functional; details: dose 3.9 µg/ml
Staphylococcus aureus [9] = experiment: Antibiofilm activity in Staphylococcus aureus DSM1104 assessed as disruption of preformed biofilm at 7.8 to 250 ug/ml incubated for 18 hrs by crystal violet staining based assay relative to control; format: functional; details: dose 7.8-250 µg/ml, at 7.8 to 250 µg/mL
Staphylococcus aureus [10] = experiment: Antibiofilm activity in Staphylococcus aureus DSM1104 assessed as disruption of preformed biofilm at 31.3 ug/ml incubated for 18 hrs by crystal violet staining based assay; format: functional, organism-based; details: dose 31.3 µg/ml
Staphylococcus aureus [11] = experiment: Synergistic antimicrobial activity against Staphylococcus aureus DSM 1104 planktonic cells assessed as inhibition of preformed biofilm by measuring fold increase in vancomycin potency at 3.9 to 7.8 ug/ml measured at 24 to 48 hrs by CFU counting assay relative to control; format: functional; details: dose 3.9-7.8 µg/ml; time 24-48 hrs
Staphylococcus aureus [12] = experiment: Synergistic antimicrobial activity against Staphylococcus aureus DSM 1104 planktonic cells assessed as fractional inhibitory concentration index at 3.9 ug/ml in presence of vancomycin by checkerboard assay; format: functional; details: dose 3.9 µg/ml
Staphylococcus aureus [13] = experiment: Synergistic antimicrobial activity against Staphylococcus aureus DSM 1104 planktonic cells assessed as inhibition of preformed biofilm by measuring fold increase in gentamicin potency at 3.9 to 7.8 ug/ml measured at 24 to 48 hrs by CFU counting assay relative to control; format: functional; details: dose 3.9-7.8 µg/ml; time 24-48 hrs
Staphylococcus aureus [14] = experiment: Synergistic antimicrobial activity against Staphylococcus aureus DSM 1104 planktonic cells assessed as fractional inhibitory concentration index at 3.9 ug/ml in presence of gentamicin by checkerboard assay; format: functional; details: dose 3.9 µg/ml
Staphylococcus aureus [15] = experiment: Synergistic antimicrobial activity against Staphylococcus aureus DSM 1104 planktonic cells assessed as fold increase in gentamicin potency at 3.9 ug/ml by checkerboard assay relative to control; format: functional; details: dose 3.9 µg/ml
Staphylococcus aureus [16] = experiment: Antimicrobial activity against Staphylococcus aureus DSM 1104 assessed as disruption of preformed biofilm by measuring reduction in metabolic activity at 3.9 ug/ml incubated for 24 hrs by XTT assay; format: functional, organism-based; details: dose 3.9 µg/ml
Staphylococcus aureus [17] = experiment: Antimicrobial activity against Staphylococcus aureus DSM 1104 assessed as disruption of preformed biofilm by measuring reduction in metabolic activity at 2 to 7.8 ug/ml measured every 90 mins for 10 hrs by absorbance based analysis; format: functional, organism-based; details: dose 2-7.8 µg/ml
Staphylococcus aureus [18] = experiment: Antibiofilm activity in Staphylococcus aureus DSM1104 assessed as disruption of preformed biofilm at […] to […] ug/ml incubated for 18 hrs by crystal violet staining based assay relative to control; format: functional; details: dose lower […] microg/ml, dose upper 250 µg/ml
Staphylococcus aureus [19] = experiment: Antimicrobial activity against Staphylococcus aureus DSM 346 assessed as inhibition of microbial growth at 3.9 to 7.8 ug/ml measured for 10 hrs; format: functional, organism-based; details: DSM346, dose 3.9-7.8 µg/ml
Staphylococcus aureus [20] = experiment: Synergistic antimicrobial activity against Staphylococcus aureus DSM 1104 planktonic cells assessed as vancomycin MIC at 3.9 ug/ml by checkerboard assay; format: functional; details: dose 3.9 µg/ml
Staphylococcus aureus [21] = experiment: Synergistic antimicrobial activity against Staphylococcus aureus DSM 1104 planktonic cells assessed as gentamicin MIC at 3.9 ug/ml by checkerboard assay; format: functional; details: dose 3.9 µg/ml

Row | Molecule | Activity (KB 3-1) | Activity [1] | Activity [2] | Activity (L929) | Activity (Wickerhamomyces anomalus) | Activity [3] | Activity (Candida albicans) | Activity (Mucor hiemalis) | Activity (Rhodotorula glutinis) | Activity (Escherichia coli) | Activity (Pseudomonas aeruginosa) | Activity (Staphylococcus aureus [4]) | further results
1 | C[C@H](C[C@@H](C)[C@H](C)O)C[C@H](C)C(=O)C1=C(O)/C(=C/c2ccccc2)NC1=O | Non-Toxic | inactive | inactive | Non-Toxic | inactive | inactive | inactive | inactive | inactive | inactive | inactive |  | 
2 | C[C@@H](C[C@H](C)C(=O)C1=C(O)/C(=C/c2ccccc2)NC1=O)C[C@](C)(O)C(=O)CO | Non-Toxic | inactive | inactive | Non-Toxic | inactive | inactive | inactive | inactive | inactive | inactive | inactive | inactive | Activity (Bacillus subtilis): inactive
3 | GENTAMICIN |  |  |  |  |  |  |  |  |  |  |  |  | MIC (Staphylococcus aureus [4]): 0.4 µg/mL; MIC [1]: 0.42 µg/mL; MIC (Staphylococcus aureus [5]): 15.7 µg/mL; MIC (Escherichia coli): 1.7 µg/mL; MIC (Pseudomonas aeruginosa): 0.21 µg/mL
4 | CCC(/C=C(C)/C=C/C(=O)c1c(O)c(-c2ccc(O)cc2)cn(O)c1=O)CO (centres undefined) |  |  |  |  |  |  |  |  |  |  |  |  | Activity (Staphylococcus aureus [6]): inactive
5 | CC[C@H](C)[C@@H]1O[C@H](c2c(O)c(-c3ccccc3)cn(O)c2=O)[C@@H](C)C[C@@H]1C |  | inactive | inactive |  | inactive | inactive | inactive | inactive | inactive | inactive | inactive |  | Activity (Staphylococcus aureus [7]): inactive
6 | C[C@H](C[C@@H](C)[C@H](C)OC=O)C[C@H](C)C(=O)C1=C(O)/C(=C/c2ccccc2)NC1=O |  | inactive | inactive |  | inactive | inactive | inactive |  | inactive | inactive | inactive |  | Activity (Staphylococcus aureus [8]): 35%; Activity (Staphylococcus aureus [9]): 50%
7 | C[C@@H](C[C@H](C)C(=O)C1=C(O)/C(=C/c2ccccc2)NC1=O)C[C@](C)(O)[C@@H](O)CO | Non-Toxic | inactive | inactive | Non-Toxic | inactive | inactive | inactive | inactive | inactive | inactive | inactive | inactive | Activity (Bacillus subtilis): inactive
8 | NYSTATIN |  |  |  |  |  |  |  |  |  |  |  |  | MIC [2]: 4.2 µg/mL; MIC (Wickerhamomyces anomalus): 8.3 µg/mL; MIC (Mucor hiemalis): 8.3 µg/mL; MIC (Rhodotorula glutinis): 4.2 µg/mL
9 | CC[C@H](C)C[C@@H](C)C[C@H](C)C(=O)C1=C(O)/C(=C/c2ccccc2)NC1=O |  | inactive | inactive |  | inactive |  | inactive |  | inactive | inactive | inactive | inactive | Activity (Staphylococcus aureus [10]): Active
10 | CC(=O)[C@H](C)C[C@@H](C)C[C@H](C)C(=O)C1=C(O)/C(=C/c2ccccc2)NC1=O |  | inactive |  |  | inactive | inactive |  |  | inactive | inactive | inactive |  | fold change (FC) (Staphylococcus aureus [11]): 3; fractional inhibitory concentration index (FICI) (Staphylococcus aureus [12]): 0.158; fold change (FC) (Staphylococcus aureus [13]): 3; fractional inhibitory concentration index (FICI) (Staphylococcus aureus [14]): 0.126; fold change (FC) (Staphylococcus aureus [15]): 115; Activity (Staphylococcus aureus [16]): Active; Activity (Staphylococcus aureus [17]): Active; Activity (Staphylococcus aureus [18]): ~50%; Activity (Staphylococcus aureus [19]): Active; MIC (Staphylococcus aureus [20]): 0.065 µg/mL; Activity (Staphylococcus aureus [8]): 35%; MIC (Staphylococcus aureus [21]): 0.13 µg/mL
